Series [1] in a line: Aqueous solubility of the compound in water by HPLC based shake flask method. The format is physicochemical.
The subject of series [2] is Danio rerio. The experiment in a line: Induction of morphological abnormality in wild type zebrafish embryo in E3 medium dosed 24 hrs of post fertilization. The format is functional, organism-based.
Series [3] relates to Danio rerio. The experiment in a line: Toxicity in wild type zebrafish embryo in E3 medium assessed as induction of lethality treated at <60 uM dosed 24 hrs of post fertilization observed on 96 to 120 hrs of post fertilization. The following applies: in vivo. Type of series: organism-based.
The target of series [4] is T1, Glycogen synthase kinase-3 alpha (Homo sapiens, UniProt P49840). The following applies: NB-4, 5 to 10 uM.
Target sequence in this assay (P49840 2-483 limits assumed): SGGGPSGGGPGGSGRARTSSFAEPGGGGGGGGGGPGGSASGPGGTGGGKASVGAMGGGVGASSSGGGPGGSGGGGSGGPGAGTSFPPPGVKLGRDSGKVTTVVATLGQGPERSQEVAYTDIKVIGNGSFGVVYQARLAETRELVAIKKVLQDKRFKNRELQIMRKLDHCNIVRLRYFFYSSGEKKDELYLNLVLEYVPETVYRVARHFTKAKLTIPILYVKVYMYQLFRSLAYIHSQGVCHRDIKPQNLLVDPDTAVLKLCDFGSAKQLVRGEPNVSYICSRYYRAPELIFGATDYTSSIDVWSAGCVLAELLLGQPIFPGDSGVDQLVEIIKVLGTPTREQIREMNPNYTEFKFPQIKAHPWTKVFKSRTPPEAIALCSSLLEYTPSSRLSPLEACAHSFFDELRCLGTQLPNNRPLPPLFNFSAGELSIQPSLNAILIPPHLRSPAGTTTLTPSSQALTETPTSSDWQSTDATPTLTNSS
The target in series [5] is T1, Glycogen synthase kinase-3 alpha. The following applies: HL-60, 5 to 10 uM.
Target sequence in this assay (P49840 2-483 limits assumed): as above
Description: Inhibition of GSK-3 alpha in human HL-60 cells assessed as decreased nuclear to cytoplasmic ratio at 5 to 10 uM after 6 days by May-Grunwald Giemsa staining based light microscopy
The target is the same in series [6]. The following applies: NB-4, 5 to 10 uM. The source holds these as a separate data set.
Target sequence in this assay (P49840 2-483 limits assumed): as above
Description: Inhibition of GSK-3 alpha in human NB4 cells assessed as increased vacuolization at 5 to 10 uM after 6 days by May-Grunwald Giemsa staining based light microscopy
For series [7], the system named is Danio rerio. The experiment in a line: Induction of morphological abnormality wild type zebrafish embryo in E3 medium assessed as stunted and crooked tail phenotype at >30 uM dosed 24 hrs of post fertilization. Type of series: functional, organism-based.
For series [8], the system named is Danio rerio. Briefly: Induction of morphological abnormality in wild type zebrafish embryo in E3 medium at 1 to 15 uM dosed 24 hrs of post fertilization. The format is functional, organism-based.
In series [9] the target is T1, Glycogen synthase kinase-3 alpha. Conditions: HL-60, 5 to 10 uM. This is another data set of the same source.
Target sequence in this assay (P49840 2-483 limits assumed): as above
Description: Inhibition of GSK-3 alpha in human HL-60 cells assessed as CD14 expression at 5 to 10 uM after 6 days by flow cytometry
Series [10] has as its system Danio rerio. The experiment in a line: Inhibition of embryonic development in wild type zebrafish embryo in E3 medium assessed as beta catenin activation at >30 uM dosed 24 hrs of post fertilization. The format is functional, organism-based.
The target of series [11] is T1, Glycogen synthase kinase-3 alpha. The following applies: HL-60, 5 to 10 uM. This is another data set of the same source.
Target sequence in this assay (P49840 2-483 limits assumed): as above
Description: Inhibition of GSK-3 alpha in human HL-60 cells assessed as CD11b expression at 5 to 10 uM after 6 days by flow cytometry
Series [12] shares this target. Conditions: NB-4, 5 to 10 uM. This is another data set of the same source.
Target sequence in this assay (P49840 2-483 limits assumed): as above
Description: Inhibition of GSK-3 alpha in human NB4 cells assessed as CD11b expression at 5 to 10 uM after 6 days by flow cytometry
Series [13] shares this target. The following applies: NB-4, 5 to 10 uM. This is another data set of the same source.
Description: Inhibition of GSK-3 alpha in human NB4 cells assessed as decreased nuclear to cytoplasmic ratio at 5 to 10 uM after 6 days by May-Grunwald Giemsa staining based light microscopy
Series [14] shares this target. The following applies: HL-60, 5 to 10 uM. This is another data set of the same source.
Description: Inhibition of GSK-3 alpha in human HL-60 cells assessed as CD11c expression at 5 to 10 uM after 6 days by flow cytometry
For series [15] the target is unchanged. The following applies: NB-4, 5 to 10 uM. This is another data set of the same source.
Description: Inhibition of GSK-3 alpha in human NB4 cells assessed as CD11c expression at 5 to 10 uM after 6 days by flow cytometry
For series [16] the target is unchanged.
Target sequence in this assay (P49840 whole entry): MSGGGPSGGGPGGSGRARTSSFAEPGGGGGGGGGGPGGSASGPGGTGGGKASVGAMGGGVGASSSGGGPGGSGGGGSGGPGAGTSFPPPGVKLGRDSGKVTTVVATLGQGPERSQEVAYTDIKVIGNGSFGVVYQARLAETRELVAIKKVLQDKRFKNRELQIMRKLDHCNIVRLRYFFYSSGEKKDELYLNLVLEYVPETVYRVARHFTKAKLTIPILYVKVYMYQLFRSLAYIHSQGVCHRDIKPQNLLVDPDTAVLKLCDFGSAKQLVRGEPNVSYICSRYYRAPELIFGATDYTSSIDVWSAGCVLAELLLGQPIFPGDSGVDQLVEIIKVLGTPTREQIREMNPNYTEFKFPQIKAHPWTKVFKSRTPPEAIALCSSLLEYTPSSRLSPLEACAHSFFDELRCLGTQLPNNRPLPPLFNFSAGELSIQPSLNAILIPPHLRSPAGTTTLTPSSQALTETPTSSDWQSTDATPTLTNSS
Series [17] shares this target. The following applies: HL-60, 5 to 10 uM. This is another data set of the same source.
The target is the same in series [18]. Conditions: HL-60, 5 to 10 uM. The source holds these as a separate data set.
Description: Inhibition of GSK-3 alpha in human HL-60 cells assessed as increased vacuolization at 5 to 10 uM after 6 days by May-Grunwald Giemsa staining based light microscopy
For series [19], the target named is Glycogen synthase kinase-3 beta (Homo sapiens, UniProt P49841).
In series [20] the target is T1, Glycogen synthase kinase-3 alpha. The following applies: NB-4, 5 to 10 uM. This is another data set of the same source.
Description: Inhibition of GSK-3 alpha in human NB4 cells assessed as CD14 expression at 5 to 10 uM after 6 days by flow cytometry
The species named for series [21] is Sus scrofa. The following applies: 100 nM.
For series [22], the species on record is Sus scrofa. Conditions: 100 nM. This is another data set of the same source.

The source of these data is ChEMBL document CHEMBL3632523, “Evaluation of Improved Glycogen Synthase Kinase-3α Inhibitors in Models of Acute Myeloid Leukemia” (J Med Chem, 2015).

In brackets after ≈: the same amount, converted by molar mass. Activity calls are given as the source filed them. No cut-off for these calls is given here.

Glycogen synthase kinase-3 beta, sequence (P49841 whole entry): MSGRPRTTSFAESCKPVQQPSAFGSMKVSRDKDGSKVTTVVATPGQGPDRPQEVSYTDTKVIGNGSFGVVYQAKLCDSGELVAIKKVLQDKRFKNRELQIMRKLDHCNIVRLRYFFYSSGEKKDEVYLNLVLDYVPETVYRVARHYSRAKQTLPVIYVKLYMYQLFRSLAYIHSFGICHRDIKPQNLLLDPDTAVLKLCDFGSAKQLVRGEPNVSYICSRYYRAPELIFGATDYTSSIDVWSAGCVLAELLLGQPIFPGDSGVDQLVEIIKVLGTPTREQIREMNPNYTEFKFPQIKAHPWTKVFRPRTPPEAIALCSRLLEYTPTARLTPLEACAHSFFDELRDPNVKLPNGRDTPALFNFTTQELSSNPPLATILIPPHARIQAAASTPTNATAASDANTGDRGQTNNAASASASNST

Broadly, the solubility (thermodynamic) is the concentration in solution at equilibrium with solid. On to `Cc1ccc(-c2ccc(CSc3nnc(-c4ccc5c(c4)OCCO5)o3)cc2)cn1`, for which the solubility (thermodynamic) in series [1] is less than 1 µM.

As to `N#Cc1ccc(-c2ccc(CSc3nnc(-c4ccc5c(c4)OCCO5)o3)cc2)cn1`, the solubility (thermodynamic) in [1] worked out at 50 µM (≈ 21.4 µg/mL).

`Fc1ccc(-c2ccc(CSc3nnc(-c4ccc5c(c4)OCCO5)o3)cc2)cn1`: the thermodynamic solubility in series [1] was found to be 17 µM (≈ 7.16 µg/mL).

In turn, `N#Cc1ccc(-c2ccc(CSc3nnc(-c4ccc5c(c4)OCCO5)o3)cc2)nc1` showed a thermodynamic solubility in [1] of 181 µM (≈ 77.6 µg/mL). In addition, the outcome with Danio rerio [2] was inactive. Besides, the Activity entry in the series with Danio rerio [3] is “Non-toxic”.

For orientation: inhibition means the change of the read-out against control, counted positive when it falls. Usually IC50 stands for the point on the concentration scale where inhibition reaches its midpoint. Read a low IC50 as higher potency. Take `NC(=O)c1cc(F)ccc1-c1ccc(CSc2nnc(-c3ccc4c(c3)OCCO4)o2)cc1`: the inhibition entry in [4], in series [5], in [6], in series [9], in series [11] and in [12] was “Active” in each case. The inhibition entry in [13], in series [14], in [15], in series [17], in series [18] and in series [20] was “Active” in each case. For the same compound, the result in the series on Danio rerio [7] and in the series on Danio rerio [10] was Active. In addition, the result in the series on Danio rerio [8] was inactive. In [1], the solubility (thermodynamic) amounted to 73 µM (≈ 33.8 µg/mL). The IC50 in series [16] was 42 nM; in series [19] it was 140 nM. The Activity entry in the series on Danio rerio [3] is given as “Non-toxic”.

On to `N#Cc1cc(F)ccc1-c1ccc(CSc2nnc(-c3ccc4c(c3)OCCO4)o2)cc1`, for which the solubility (thermodynamic) in series [1] turned out to be 1 µM (≈ 0.445 µg/mL).

In series [1], `Cc1ccc(-c2ccc(CSc3nnc(-c4ccc5c(c4)OCCO5)o3)cc2)nc1` returned a solubility (thermodynamic) of 1 µM (≈ 0.417 µg/mL).

As to `Fc1ccc(-c2ccc(CSc3nnc(-c4ccc5c(c4)OCCO5)o3)cn2)cn1`, in series [1], the solubility (thermodynamic) stood at 1 µM (≈ 0.422 µg/mL).

With `N#Cc1cc(F)ccc1-c1ccc(CS(=O)(=O)c2nnc(-c3ccc4c(c3)OCCO4)o2)cc1`, the inhibition in the series filed under Sus scrofa [21] and in the series listed under Sus scrofa [22] was 0% in each case.
